{"source": "ChEMBL document CHEMBL2434869", "about": "“Pyrazole containing natural products: synthetic preview and biological significance” (Eur J Med Chem, 2013)", "key": {"[1]": {"test": "Cytotoxicity against mouse EAC assessed as growth inhibition", "type": "functional, Ehrlich"}, "[2]": {"test": "Toxicity in white mouse", "type": "organism-based", "conditions": "in vivo"}, "[3]": {"test": "Cytotoxicity against mouse mammary carcinoma 755 cells assessed as growth inhibition", "type": "functional"}, "[4]": {"test": "Cytotoxicity against mouse Gardner lymphosarcoma cells assessed as growth inhibition", "type": "functional"}, "[5]": {"test_system": "X5563", "test": "Cytotoxicity against mouse X5563 cells assessed as growth inhibition", "type": "functional"}, "[6]": {"test": "Cytotoxicity against rat Walker 256 cells assessed as growth inhibition", "type": "functional"}}}
{"smiles": "COc1[nH]nc2nncnc12", "values": [{"measurement": "growth inhibition (GI)", "setting": "[1]", "value": 83, "unit": "%"}, {"measurement": "MTD", "setting": "[2]", "value": 50, "unit": "mg/kg"}]}
{"smiles": "COc1nnc2nn(C)cnc1-2", "values": [{"measurement": "growth inhibition (GI)", "setting": "[1]", "value": 40, "unit": "%"}, {"measurement": "MTD", "setting": "[2]", "value": 0.2, "unit": "mg/kg"}]}
{"smiles": "COc1nnc2n(C)ncnc1-2", "note": "[PSEUDOIODININE]", "values": [{"measurement": "growth inhibition (GI)", "setting": "[1]", "value": 64, "unit": "%"}, {"measurement": "MTD", "setting": "[2]", "value": 20, "unit": "mg/kg"}]}
{"smiles": "NC(=O)c1ncn([C@@H]2O[C@H](CO)[C@@H](O)[C@H]2O)n1", "note": "[RIBAVIRIN]", "values": [{"measurement": "growth inhibition (GI)", "setting": "[3]", "value": ">50", "unit": "%"}, {"measurement": "growth inhibition (GI)", "setting": "[4]", "value": ">50", "unit": "%"}, {"measurement": "growth inhibition (GI)", "setting": "[5]", "value": ">50", "unit": "%"}, {"measurement": "growth inhibition (GI)", "setting": "[6]", "value": ">50", "unit": "%"}]}
